Data from patent US20260325655A1, “DECREASING THE INTRINSICALLY DISORDERED PROTEIN ALPHA-SYNUCLEIN’S LEVELS BY TARGETING ITS STRUCTURED MRNA WITH A RIBONUCLEASE TARGETING CHIMERA” (University of Florida Research Foundation, Incorporated, priority 2023, published 2026).

What was measured:
[1] = tested on: SNCA IRE-luciferase transcript; experiment: SNCA IRE-luciferase transcript abundance by RT-qPCR; format: cell-based, human
Protocol: RNA extraction and reverse transcription-quantitative polymerase chain reaction (RT-qPCR). Total RNA was extracted from cells using a Quick-RNA MiniPrep Kit (Zymo Research) per the manufacturer's protocol including DNase treatment. For each sample, 200 ng of RNA was reverse transcribed into cDNA by using a qScript cDNA Synthesis Kit (QuantaBio) according to the manufacturer's instructions. To assess the relative mRNA levels, RT-qPCR was performed in triplicate using SYBR Green PCR mater mix (Applied Biosystems) with a Quant Studio 5 Real-Time PCR system. The relative levels of mRNA were calculated by using the ΔΔCt method as previously described.^8
(§1) Plasmid constructs and establishment of reporter gene overexpressing cells. Construction of pIRES-Luc-EGFP-puro plasmid and pCDH-α-syn-5′-UTR-Luc-EGFP-puro plasmid used in 5′ UTR-luciferase-based selectivity assay were previously described.^4 Briefly, In-Fusion PCR cloning system (Takara Bio, Mountain View, CA, USA) was used for all plasmid constructions per the manufacturer's instructions. To ensure sequence accuracy, all plasmids generated in this study were confirmed by sequencing.

[2] = tested on: fully base paired RNA; experiment: MST binding to fully base paired control RNA; settings: microscale thermophoresis
Protocol: (§2) Binding Affinity Measurements: Microscale Thermophoresis (MST). Binding affinity measurements were performed on a Monolith NT.115 MST system (NanoTemper Technologies) with Cy5-labeled oligonucleotides. Briefly, Cy5-labeled RNA (5 nM) was prepared in 1× Folding Buffer and folded by heating at 60° C. for 5 min and then slowly cooling to room temperature. After cooling, Tween-20 was added to a final concentration of 0.1% (v/v). Compound solutions were prepared separately in 30 μL of 1× Assay Buffer at a final concentration of 5 μM (1% (v/v) DMSO), followed by 1:1 serial dilutions in 1× Assay Buffer. RNA and compound solutions were then mixed 1:1 by volume.
(§3) Samples were incubated for 20 min at room temperature and then loaded into premium capillaries (NanoTemper Technologies, Cat #MO-K025). The following parameters were used for MST measurement: 5-20% LED power (adjusted to keep fluorescence intensity between 8000 and 18000), 80% MST power, Laser-On time=30 s, and Laser-Off time=5 s. The resulting data were analyzed by calculating the change in thermophoresis as a function of compound concentration and fitted by Equation (3) in MST analysis software (NanoTemper Technologies) to yield the dissociation constant (Kd):
(§4) where F is the concentration of fluorescently labeled RNA; unbound and bound refer to the thermophoresis signal at completely unbound and bound state of RNA, respectively; c is the concentration of the compound; f (c) is the thermophoresis signal at compound concentration of c; Kd is the dissociation constant.

[3] = tested on: RNase L; settings: regioisomer recruiter module of Syn-CTRL vs active recruiter (ref 48); cited from earlier work
[4] = tested on: SNCA-UTR-Luciferase; experiment: SNCA-UTR luciferase reporter assay; format: cell-based, human; settings: highest concentration tested
Description: as §1
(§5) Luciferase assay. The effect of compounds on translation of SNCA IRE-containing transcript was measured by using a luciferase reporter assay. HeLa cells (~60% confluency) were transfected with plasmids (2 μg per 60 mm dish) by using JetPrime (Polyplus Transfection) according to the manufacturer's recommended procedures. Approximately 16 h after transfection, the transfection cocktail was removed, and the cells were trypsinized and seeded to 96-well plates (8,000 cells per well). After 6 h, cells were treated as described in Cell Culture. To measure the luciferase signals, the cells were then washed with 1× DPBS, and luciferase activity in each well was measured by using the ONE-Glo Luciferase Assay System (Promega) per the manufacturer's instructions. Luminescence from firefly luciferase reaction was measured using a Biomek FLx800 plate reader.

[5] = target: SNCA IRE; experiment: MST binding affinity for SNCA IRE (A bulge model RNA); settings: microscale thermophoresis; Cy5-labeled RNA
Protocol: as §2, §3, §4

[6] = tested on: control luciferase reporter lacking an IRE; experiment: control luciferase reporter lacking an IRE; format: cell-based, human; settings: reporter lacks IRE / SNCA-UTR sequence
Description: as §1, §5

For CCOC(=O)C1=C(Nc2ccccc2)S/C(=C\c2ccc(O)c(OCCOCCOCCOCCNC(=O)CCCOc3ccc(-n4c(SCC(=O)Nc5ccc6cn[nH]c6c5)nnc4-c4ccncc4)cc3)c2)C1=O [Syn-CTRL], the “effect on SNCA IRE-luciferase transcript levels (in words)” value [1] is given as “no effect”, the “binding towards the fully base paired RNA” value [2] is given as “no saturable binding” and the “loss of activity of the RNase L-recruiting module in inducing RNase L cleavage” value [3] is given as ~ 20 -fold less active. The “decrease of luminescence signal (in words)” value [4] was “modest decrease”, the Kd [5] was 97 ± 3 nM and the “inhibition in the control luciferase reporter” value [6] was “Neither compound showed inhibition”.
